This is an account of results in patent US12553028B2, “Method to generate induced oligodendrocyte-lineage cells and treatment using such cells” (ACADEMIA SINICA, priority 2018, dated 2026).

SMILES strings stand for the structures. Entries after “also recorded” stand apart in the source; their conditions may differ.

The test system of experiment [1] is human primary skin fibroblasts. As to the kind of experiment: Generation of induced OLGs from skin fibroblasts by chemical treatment (morphology / conversion). Format: cell-based. The following applies: for morphology of induced OLGs when replacing VPA: replaces VPA at the first step induction, compared to the original cocktail. The protocol: (§1) Cells (1×10^4) were plated on each well of a 24-well plate. Culture in HG-DMEM (Life technologies) supplement with 10% fetal bovine serum (FBS) (Hyclone) for 2 days, replace the medium with Knockout medium supplement with 1% N2 supplement, 1% Albumax, 1% NEAA (treatment medium, all form Life technologies) or DMEM/F12 with 1% N2, 1% B27, 20 ng/mL PDGF-AA, EGF, bFGF and 10 ng/mL NT3 and added the different treatment chemical compound cocktails, The final condition are 3 mM Valproic acid for 2 days, 10 μM Y27632, 10 μM SU9516, 10 μM Forskolin (FSK) (Tocris) for 1 days; or 10 μM Mocetinostat or Pracinostat for 2 days, 10 μM Y27632, 10 μM SU9516, 10 μM Forskolin (FSK) (Tocris) for 1 days.

Experiment [2] concerns human primary skin fibroblasts. Nature of the experiment: Immunofluorescence assay of oligodendrocyte markers on induced cells. It is filed as cell-based. On the procedure:
as §1
The induced OLGs were fixed with 4% formaldehyde for […] at room temperature. After washing with 1×PBS, cells were permeabilized with 0.03% Triton X-100 for 5 min. The cells were washed twice with 1×PBS, and then were incubated with primary antibodies [against Olig2 antibody (1:100; Merck millipore), Nkx2.2 (1:100; Stanta Cruz), O4 antibody (1:100; Merck millipore), MBP antibody (1:100; Proteintech), PDGFRα antibody (1:100; R&D systems)] and 4′,6-diamidino-2-phenylindole (DAPI) (1:1500; Life technologies) in blocking buffer (0.02% BSA in PBS) for overnight at 4° C. Cells were washed twice in 1×PBS, followed by an incubation in CF555 goat anti-rabbit secondary antibody (1:200; Life technologies), CF488 goat anti-rabbit secondary antibody (1:200; Biotium), CF555 goat anti-mouse secondary antibody (1:200; Life technologies), CF488 goat anti-mouse secondary antibody (1:200; Biotium), CF555 goat anti-rat secondary antibody (1:200; Life technologies) in blocking buffer for 1 hr in the dark at room temperature. Cells were washed twice in 1×PBS, and the cells will be keeping in 1×PBS. Fluorescence was analyzed by using a fluorescence microscope. The fluorescence intensity of each image was analyzed by an image analysis software (Image-Pro plus 4.5 software, MD, USA). Each immunofluorescence image was quantified more than 300 cells per field.

`COc1ccc2c(c1)c(C1=C(c3c[nH]c4ccccc34)C(=O)NC1=O)cn2CCCN(C)C` [Go6983, 3-{1-[3-(Dimethylamino)propyl]-5-methoxy-1H-indol-3-yl}-4-(1H-indol-3-yl)-1H-pyrrole-2,5-dione]: in experiment [1], the “conversion of fibroblasts into OLG like cells” value was “dispensable for the conversion process”. In addition, the dendrite-like formation entry in experiment [1] (Go6983 together with Y27632 and SU9516) is recorded as “promoted the dendrite-like formation”.

Consider `Nc1ccccc1NC(=O)c1ccc(CNc2nccc(-c3cccnc3)n2)cc1` [Mocetinostat, N-(2-aminophenyl)-4-((4-(pyridin-3-yl)pyrimidin-2-ylamino)methyl)benzamide], for which, in experiment [1], the “morphology of induced OLGs when replacing VPA” value is “more mature oligodendroglia morphology”. Further, in experiment [2], the “MBP expression (immunofluorescence)” value is given as “expressed; also recorded: stronger expression” and the “O4 expression (immunofluorescence)” value is recorded as “expressed; also recorded: stronger expression”.

For `CCCCc1nc2cc(/C=C/C(=O)NO)ccc2n1CCN(CC)CC` [Pracinostat, (E)-3-(2-butyl-1-(2-(diethylamino)ethyl)-1H-benzo[d]imidazol-5-yl)-N-hydroxyacrylamide], in experiment [1], the “morphology of induced OLGs when replacing VPA” value is given as “more mature oligodendroglia morphology”. In experiment [2], the “MBP expression (immunofluorescence)” value was “expressed; also recorded: stronger expression” and the “O4 expression (immunofluorescence)” value is recorded as “expressed; also recorded: stronger expression”.

`COc1ccc2c(c1)/C(=C/c1cnc[nH]1)C(=O)N2` [SU9516, (Z)-3-((1H-imidazol-5-yl)methylene)-5-methoxyindolin-2-one]: the “morphological change of fibroblasts” value in experiment [1] is listed as “domed-shape formation”.

With `C[C@@H](N)[C@H]1CC[C@H](C(=O)Nc2ccncc2)CC1` [Y27632, Trans-4-[(1R)-1-Aminoethyl]-N-(4-pyridinyl)cyclohexane-carboxamide], in experiment [1], the “morphological change of fibroblasts” value is listed as “dendritic-like morphological change”.

For `C=C[C@@]1(C)CC(=O)[C@]2(O)[C@@]3(C)[C@@H](O)CCC(C)(C)[C@@H]3[C@H](O)[C@H](OC(C)=O)[C@@]2(C)O1` [forskolin, (3R,4aR,5S,6S,6aS,10S,10aR, 10bS)-6,10,10b-Trihydroxy-3,4a,7,7,10a-pentamethyl-1-oxo-3-vinyldodecahydro-1H-benzo[f]chromen-5-yl acetate], in experiment [1] (screen of 22 drugs on the YSG cocktail after pre-treating with VPA), the “promotion of the conversion (screen for supporting factors)” value is recorded as “significantly promoted the conversion”.

Take `CCCC(CCC)C(=O)O` [valproic acid, 2-Propylpentanoic acid]: the reprogramming efficiency result in experiment [1] (pretreating for 2 days before Y27632, SU9516, Go6983) was “enhance the reprogramming efficiency”.
